Measured values reported in patent US5183828A, “Polyhydroxybenzoic acid derivatives” (priority 1990, dated 1993).
Where “and” joins values, the source holds several entries; their conditions need not be identical. Equal values may be shown once.

How the values were obtained:
L1210 leukemia = assay: antitumor activity in L1210 leukemia (percent increase in survival time), Table 2; type: in vivo, mice; details: 8 days
Method: Testing of the compounds of this invention against L-1210 lymphoid leukemia were carried out as follows: L-1210 leukemia was maintained by weekly passage of 10^5 L-1210 cells intraperitoneally into DBA/2 mice. Diluted ascitic fluid, 0.1 ml. (10^5 cells), was administered ip to female B6D2 F1 mice weighing about 20 g. Drugs were administered ip 24 hours after tumor transplantation and injections were continued daily for a total of eight days. A group of control mice receiving only the injection medium were maintained. Table 2 which follows gives the antitumor activity against L-1210 leukemia for certain compounds of this invention. In the table, column 1 gives the name of the compound, column 2 the dose in mg./kg., and column 3 the percent increase in survival time over controls at each dose level.

Δ^5-lipoxygenase = molecular target: T1, Δ^5-lipoxygenase (Rattus norvegicus, UniProt P12527); assay: ability to inhibit Δ^5-lipoxygenase; type: biochemical; details: RBL-1 cell supernatant
T1 construct: supernatant fraction of lysed rat basophilic leukemia (RBL-1) cells; endogenous in cells; host or cells: RBL-1 cells, 49,000 g supernatant of homogenate
T1 sequence (P12527 1-673): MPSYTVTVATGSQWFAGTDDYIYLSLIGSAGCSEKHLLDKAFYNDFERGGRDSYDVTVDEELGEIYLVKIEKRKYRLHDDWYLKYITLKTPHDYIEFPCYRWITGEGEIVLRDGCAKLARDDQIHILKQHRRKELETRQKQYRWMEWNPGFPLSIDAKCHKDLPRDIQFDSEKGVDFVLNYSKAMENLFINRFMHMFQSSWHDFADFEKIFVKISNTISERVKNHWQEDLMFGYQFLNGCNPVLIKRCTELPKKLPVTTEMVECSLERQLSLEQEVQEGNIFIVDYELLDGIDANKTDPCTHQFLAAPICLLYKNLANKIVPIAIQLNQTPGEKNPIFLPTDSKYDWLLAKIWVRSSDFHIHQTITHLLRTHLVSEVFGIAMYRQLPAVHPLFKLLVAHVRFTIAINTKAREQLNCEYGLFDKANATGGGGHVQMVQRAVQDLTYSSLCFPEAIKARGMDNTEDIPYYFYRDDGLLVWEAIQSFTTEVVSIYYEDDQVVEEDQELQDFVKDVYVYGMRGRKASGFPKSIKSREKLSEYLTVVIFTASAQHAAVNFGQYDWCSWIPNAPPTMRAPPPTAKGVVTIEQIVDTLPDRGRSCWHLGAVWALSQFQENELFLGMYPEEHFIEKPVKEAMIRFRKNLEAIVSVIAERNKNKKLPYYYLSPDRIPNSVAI
Method: This enzyme is believed to initiate the synthesis of slow reacting substance of […]), an important mediator in the pathogenesis of asthma. Thus, a drug capable of inhibiting this enzyme would also help to prevent asthmatic attacks. In this determination, Δ^5 -lipoxygenase was derived from the supernatant fraction of lysed rat basophilic leukemia (RBL-1) cells. […] The Δ^5 -lipoxygenase was derived from RBL-1 cells which were lysed by homogenization in ice-cold buffer (50 mM Tris-HCl buffer, pH 7.2, containing 1 mM EDTA and 14 uM indomethacin). The homogenate was centrifuged at 4 ° C. at 49,000 g for 20 min and the resulting supernatant fraction was used as the source of Δ^5 -lipoxygenase. The enzyme was assayed at 37° using 6.7 uM (0.39 uCi/ml) [1-14C]arachidonic acid as the substrate in 50 mM Tris-HCl buffer, pH 7.2, containing 1 mM gluthatione, 3 mM CaCl2, 14 uM indomethacin, and 0.25 to 0.50 mM EDTA. […] The effect of compounds on Δ^5 -lipoxygenase activity was determined by preincubating the enzyme for 10 min at 30° in the presence or absence of various concentrations of the drug prior to addition of substrate.

[1] = free radical scavenging ability (destruction of diphenylpicrylhydrazyl), Table 7; details: 100 μM diphenylpicrylhydrazyl in acetone; test compound 25 μM, 2.5 μM (footnote)
Source text: It is believed that the antineoplastic activity of the compounds of this invention is due in parts to their ability to scavenge free-radicals. Additionally, the compounds of this invention are cancer protective agents and this utility also may be a manifestation of their free-radical scavenging capability. Free-radical scavenging agents may also be useful in detoxifying mammals in whom an excess of free radicals is a cause and/or result of the toxicity. Other possible uses of free radical scavengers are to inhibit protaglandin transformation, leucotriene interconversion and lipogenesis, to act as inflammatory modulators and as food additive or preservatives to prevent lipid oxidation. The free radical scavenging ability of the compounds of the invention was determined by measuring the destruction of the stable free radical, diphenylpicrylhydrazyl, in the presence of the test compound in a manner similar to that reported by […] and Herzmann, Naturwiss, 47, 133-134 (1960). […] The test compound was added at a final concentration of 25 μM and the rate of reduction of absorpotion at […] was observed. Table 7 below gives the free radical scavenging abilities of the compounds of this invention expresses as the initial rate of decrease in optical density units/min.

[2] = tested on: arachidonic acid induced ear edema; assay: arachidonic acid induced ear edema assay, Table 10; type: in vivo, Mice; details: Experiment 1, 2 mg total dose, topical; for Mean Increase in Weight of Inflammed Ear (± S.E.): positive control 17.0 ± 0.6, p = .000
Method: The compounds of this invention because of their ability to scavenge free-radicals in vivo are capable of modulating inflammation as set forth in the following protocol: Mice received the test compound topically to each side of the right ear one hr prior to the inflammatory challenge, at which time they were challenged (except for the negative control) with 10 microliter of a 2 mg/20 microliter solution of arachidonic acid applied to each side of the right ear. One hour post-challenge, the animals were sacrificed, the right ears removed, and an 8 mm disc punched from each. These discs were then weighed. The following table gives the results of this experiment.

L-1210 Leukemia = assay: activity vs L-1210 leukemia (T/C % survival time), Table 3; type: in vivo, mice; details: >130 significant, hydrochloride
Source text: 3,4-Dihydroxybenzamidoxime and 3,4,5-trihydroxybenzamidoxime were subjected to a further series of tests against various transplanted tumors in mice according to the following protocols:
For L-1210 lymphoid leukemia, 20 grams CDF1 or BDF1 mice […] ip with 10^5 leukemia cells. The drug was given one day after tumor inoculation continued for an additional eight days. The mean survival time for the treated animal was compared to that of the control group. In the table, column 1 gives the name of the compound, column 2 the dose levels, and column 3 treated over control percent survival time. (In other words, a figure of 175 indicates a 75% increase in survival time.)

P388 Leukemia = assay: activity vs P388 leukemia (T/C % survival time), Table 6; type: in vivo, mice; details: five treatments, >130 significant
Method: The following protocol was used:
CDF1 mice were injected ip with 10^6 cells The drug was administered in the first day after tumor inoculation and continued daily for five treatments. The mean survival time of the treated group compared to the non-treated control group equals T/C×100=T/C percent.

P-388 = assay: antileukemia activity of nitriles vs P-388, Table 8; type: in vivo
Source text: (§1) Table 8 which follows gives anti-tumor data vs L-1210 and P-388 leukemia for these novel nitriles.

L1210 = assay: antileukemia activity of nitriles vs L1210, Table 8; type: in vivo
Source text: as §1

Cl.N=C(N)c1cc(O)c(O)c(O)c1 [3,4,5-trihydroxybenzamidine.HCl, 3,4,5-trihydroxybenzamidine-HCl]
ILS at 200 mg/kg (L1210 leukemia; Mus musculus, L1210, 192 h, 200 mg/kg ip daily): 43.5% | ILS at 300 mg/kg (L1210 leukemia; Mus musculus, L1210, 192 h, 300 mg/kg ip daily): 10.2% | inhibition at 10 µM (Δ^5-lipoxygenase): 75% | initial rate of decrease in optical density (518 nm) [1]: 4.912 units/min. | Percent Inhibition vs. positive control [2]: 24% | Mean Increase in Weight of Inflammed Ear (± S.E.) [2]: 13.0 ± 0.3 mg

Cl.NC(=NO)c1cc(O)c(O)c(O)c1 [3,4,5-trihydroxybenzamidoxime.HCl, 3,4,5-Trihydroxybenzamidoxime hydrochloride]
% Increase in Survival Time (L1210 leukemia; 196 mg/kg ip daily): toxic | ILS at 59 mg/kg (L1210 leukemia; Mus musculus, L1210, 192 h, 59 mg/kg ip daily): 90% | ILS at 132 mg/kg (L1210 leukemia; Mus musculus, L1210, 192 h, 132 mg/kg ip daily): 54.5% | ILS at 220 mg/kg (L1210 leukemia; Mus musculus, L1210, 192 h, 220 mg/kg ip daily): 63.6% | ILS at 275 mg/kg (L1210 leukemia; Mus musculus, L1210, 192 h, 275 mg/kg ip daily): 30.6% | t/c % (mean survival time) (L-1210 Leukemia; 25 mg/kg): 136% and 121% | t/c % (mean survival time) (L-1210 Leukemia; 50 mg/kg): 138% and 137% | t/c % (mean survival time) (L-1210 Leukemia; 100 mg/kg): 152% and 137% | t/c % (mean survival time) (L-1210 Leukemia; 200 mg/kg): 212% and 182% | inhibition at 1 µM (Δ^5-lipoxygenase; 1 uM): 24% | inhibition at 10 µM (Δ^5-lipoxygenase): 90% | initial rate of decrease in optical density (518 nm) [1]: 0.929 units/min. | Percent Inhibition vs. positive control [2]: 44% | Mean Increase in Weight of Inflammed Ear (± S.E.) [2]: 9.5 ± 0.3 mg | T/C % (mean survival time) (P388 Leukemia; 50 mg/kg daily, hydrochloride): 142% and 138% and 141% | T/C % (mean survival time) (P388 Leukemia; 100 mg/kg daily, hydrochloride): 150% and 154% and 138% and 148% | T/C % (mean survival time) (P388 Leukemia; 200 mg/kg daily, hydrochloride): 155% and 177% | T/C % (mean survival time) (P388 Leukemia; 300 mg/kg daily): 163% | T/C % (mean survival time) (P388 Leukemia; 400 mg/kg daily): toxic

N#Cc1cc(O)c(O)c(O)c1 [3,4,5-trihydroxybenzonitrile]
% Increase in Survival Time (P-388; 50 mg/kg): 15% and 20% | % Increase in Survival Time (P-388; 200 mg/kg): 26% and 39% | % Increase in Survival Time (P-388; 400 mg/kg): 26% | % Increase in Survival Time (L1210; 118 mg/kg): 34.0% | % Increase in Survival Time (L1210; 157 mg/kg): 28.0%
